Data: US7632506B2, “Identification of new NY-ESO-1 epitopes recognized by CD4+ T-cells” (Ludwig Institute for Cancer Research, priority 2005, dated 2009)

Columns and labels:
Type in all cases: cell-based, human
CD4+ T cells [1] = experiment: IFN-γ ELISPOT of CD4+ T cells presensitized with overlapping NY-ESO-1 18 mer peptides; settings: patient NW2337, limiting dilution
[2] = tested on: CD4+ T cell clones NW2337-CD4-1 and NW2337-CD4-10; experiment: 51Cr release assay with peptide-pulsed EBV-B target cells
Description: In these experiments, exemplary clones NY-ESO-1 p49-66 specific CD4^+ T cell clone NW2337-CD4-1 and NY-ESO-1 p55-72 specific CD4^+ T cell clone NW2337-CD4-10 were characterized in ^51Chromium (^51Cr) release assays using peptides overlapping the sequence of each stimulation peptide. Standard ^51Cr release assay methods were used. Briefly, autologous EBV B cell target cells were labeled with 100 μCi Na2^51CrO4 for 2 hours, and pulsed with 18 mer or 20 mer NY-ESO-1 peptides (10 μg/ml) for 1 hour. Then, 1×10^3 target cells/well were incubated in 96 V- bottom microwell plates with effector cells at different E/T ratios for 4 h at 37° C. ^51Cr release was measured in the supernatant and the specific cytotoxicity was calculated using the standard methods. Polyclonal T-cell populations were preincubated with unlabeled K562 cells as competitors at a concentration of 40:1 in order to block non-specific effector reactions.
These experiments confirmed recognition of naturally presented NY-ESO-1 epitopes by the CD4+ T-cell clones.

CD8+ T-cells = experiment: ELISPOT of CD8+ T-cells presensitized with Ad2/ESO infected PBMC
Description: To examine the possibility that one of the novel MHC class II epitopes described in this study may also represent an MHC class I binding peptide epitope, CD8^+ T-cells from the patients described above, were presensitized with autologous CD4^−/CD8^− PBMC infected with the recombinant adenovirus Ad2/ESO. Responder T-cells were tested in ELISPOT assays for recognition of autologous APC's pulsed with the 28 overlapping 18 mer peptides described in Table 2.

CD4+ T cells [3] = experiment: IFN-γ ELISPOT of CD4+ T cells presensitized with overlapping NY-ESO-1 18 mer peptides
Description: Peripheral blood mono-nuclear cells (“PBMCs”) were separated from heparinized blood via Ficoll density gradient separation, using standard, art recognized techniques. Once this was done, the CD4^+ and CD8^+ T cells were separated from each other using magnetic cell sorting techniques which are well known to the art, producing CD4^+, CD8^+, and CD4^−/CD8^− cell populations.
A series of 18 mer peptides were prepared from the amino acid sequence of NY-ESO-1 as set forth in, e.g., U.S. Pat. No. 5,804,381, incorporated by reference. The peptides were designed to cover the entire sequence of NY-ESO-1, and to provide overlap.
The peptides were then individually pulsed to antigen presenting cells (“APCs”). These were CD4^−/CD8^− PBMCs taken from the same subjects who had provided the CD4^+ and CD8^+ cells. These APCs were irradiated with 3000 rads, and then pulsed with one of the peptides, at a concentration of 10 μg/ml, for 1 hour, in serum free medium. These APCs were then washed, and added to the CD4^+ cells. In the pulsing experiments, the peptides were solubilized in DMSO (100%) and then diluted with PBS to a final concentration of 10% DMSO. The CD4^+ cells had been cultured in a medium of L-arginine (242 mg/l), L-asparagene (50 mg/l), L-glutamine (300 mg/l), penicillin (10 IU/ml), streptomycin (100 μg/ml), 1% non-essential amino acids, 10% HS, and 10 ng/ml of recombinant human IL-2.
The CD4^+ T cells were restimulated weekly with 1 μg/ml of the peptide being used. On day 12, each CD4^+ culture was assayed for NY-ESO-1 peptide recognition, using the ELISPOT assay of lager, et al., Proc. Natl. Acad. Sci. USA, 97(9):4760-4765 (2000), incorporated by reference. To elaborate on this procedure, flat-bottomed, 96-well nitrocellulose plates were coated with 5 μg/ml of anti-interferon-gamma antibody and incubated overnight at 4° C. After washing with PBS, plates were blocked with 10% human serum (HS) for 1 hour at 37° C. Depending on the effector:target ratio used, various numbers of presensitized CD4^+ T-cells were added to each well along with 5×10^4 autologous peptide pulsed EBV transfected B cells (“EBV-B cells”) serving as target cells and incubated for 16 hours at 37° C. in TCM without IL-2. Plates were then washed extensively (6 times with a solution of 0.05% Tween 20/PBS), and biotinylated anti-interferon-gamma detection antibody was added at a concentration of 0.5 μg/ml. After incubation for 2 h at 37° C., plates were washed and incubated with ABC-AP Vectastain for 1 hour. Plates were washed again and developed with substrate (BCIP/NPT) until blue spots were visible. The number of blue spots/well represented the proportion of NY-ESO-1 specific CD4^+ T-cells/well was finally counted under the microscope.
The EBV-B-cells were generated from each patients' PBMC following standard methods and maintained in RPMI 1640 medium supplemented with 10 mM Hepes buffer, L-arginine (242 mg/l), L-asparagine (50mg/l), L-glutamine (300 mg/l), penicillin (10 IU/ml), streptomycin (100 μg/ml), 1% non-essential amino acids, and 10% FCS. […] PBMC's or EBV-B-cells were molecularly typed for HLA expression using standard procedures.

NW2337 CD4+ T cells = experiment: Cytokine ELISPOT assays (IFNγ, TNFα, IL4, IL10) of NW2337 CD4+ T cells
Text: All ELISPOT assay described, supra were designed to detect IFN-γ secretion by the T cell clones following specific antigen stimulation. To determine the phenotype of the NY-ESO-1 specific CD4^+ T cell clones from patient NW2337, additional ELISPOT assays were designed to detect additional cytokines.
The NW2337 CD4^+ T cells were stimulated with either NY-ESO-1 p49-66 and p55-72 peptides and T cells secretion of IFNγ, TNFα, IL4 and IL10measured by ELISPOT assay. […] IL4 and IL10 was not secreted by any of the NY-ESO-1 specific CD4^+ T-cell clones tested following stimulation with NY-ESO-1 p49-66 and p55-72 peptides.

P55-72: synthetic 18 mer peptide, amino acids 55-72 of NY-ESO-1 (GPGGGAPRGPHGGAASGL; UniProt P78358 55-72, looked up, fragment) [Peptide P55-72]
CD4+ T-cell clones generated by stimulation with peptide (CD4+ T cells [1]): 53
lysis of peptide pulsed autologous NW-2337-EBV B-cell lines by clones NW-2337-CD4-3 and -10 [2]: efficiently lysed
recognition by clone NW2337-CD4-1 ([2]; autologous EBV B cells pulsed with peptide 10 μg/ml, clone generated with p49-66): crossreacted
recognition by clone NW2337-CD4-10 ([2]; autologous EBV B cells pulsed with peptide 10 μg/ml, clone generated with p55-72): recognized
NW1454 CD8+ T-cell recognition of peptide pulsed T2-A3 and HLA-A3 expressing NW115 EBV-B-cell target cells (CD8+ T-cells): recognition
recognition by CD8+ T-cells (CD8+ T-cells; CD8+ T-cells from patient NW1231, NW1454 and NW2427, autologous APC's pulsed with peptide): observed
HLA class I molecule presenting the peptide (CD8+ T-cells; only shared HLA class I allele of the three patients): HLA-A3
Patient T cells 1 (CD4+ T cells [3]; IFN-γ ELISPOT, day 12, CD4+ T cells of patient 1, autologous peptide pulsed EBV-B cells as targets): + (+ indicates >50 spots (all + scores indicated were >100 spots))
Patient T cells 2 (CD4+ T cells [3]; IFN-γ ELISPOT, day 12, CD4+ T cells of patient 2, autologous peptide pulsed EBV-B cells as targets): + (+ indicates >50 spots (all + scores indicated were >100 spots))
Patient T cells 3 (CD4+ T cells [3]; IFN-γ ELISPOT, day 12, CD4+ T cells of patient 3, autologous peptide pulsed EBV-B cells as targets): + (+ indicates >50 spots (all + scores indicated were >100 spots))
patients whose CD4+ T cells recognized the peptide (CD4+ T cells [3]; three patients tested): all three patients
IFN-γ secretion by stimulated T cell clones (NW2337 CD4+ T cells): produced
IL4 secretion by stimulated T cell clones (NW2337 CD4+ T cells): not secreted
IL10 secretion by stimulated T cell clones (NW2337 CD4+ T cells): not secreted
TNF-α secretion by stimulated T cell clones (NW2337 CD4+ T cells): produced
